In patent publication US20070021419A1, “2-Aminophenyl-4-phenylpyrimidines as kinase inhibitors” (Cyclacel Limited, priority 2003, published 2007):

Assays:
[1] = target: CDK2/cyclin E (Homo sapiens, UniProt P24941); assay: Kinase assay, radioactive phosphate incorporation, CDK2/cyclin E; assay type: biochemical; details: 100 μM ATP, 30° C.; read-out: Kinase inhibition IC50 CDK2/cyclin E
Description: (§1) The compounds from the examples above were investigated for their ability to inhibit the enzymatic activity of various protein kinases. This was achieved by measurement of incorporation of radioactive phosphate from ATP into appropriate polypeptide substrates. Recombinant protein kinases and kinase complexes were produced or obtained commercially. Assays were performed using 96-well plates and appropriate assay buffers (typically 25 mM β-glycerophosphate, 20 mM MOPS, 5 MM EGTA, 1 mM DTT, 1 mM Na3VO3, pH 7.4), into which were added 2-4 μg of active enzyme with appropriate substrates. The reactions were initiated by addition of Mg/ATP mix (15 mM MgCl2+100 μM ATP with 30-50 kBq per well of [γ-^32P]-ATP) and mixtures incubated as required at 30° C. Reactions were stopped on ice, followed by filtration through p81 filterplates or GF/C filterplates (Whatman Polyfiltronics, Kent, UK). After washing 3 times with 75 mM aq orthophosphoric acid, plates were dried, scintillant added and incorporated radioactivity measured in a scintillation counter (TopCount, Packard Instruments, Pangbourne, Berks, UK). Compounds for kinase assay were made up as 10 mM stocks in DMSO and diluted into 10% DMSO in assay buffer.

[2] = target: CDK7/cyclin H (Homo sapiens, UniProt P50613); assay: Kinase assay, radioactive phosphate incorporation, CDK7/cyclin H; assay type: biochemical; details: 100 μM ATP, 30° C.; read-out: Kinase inhibition IC50 CDK7/cyclin H
Description: as §1

[3] = target: CDK9/cyclin T1 (Homo sapiens, UniProt P50750); assay: Kinase assay, radioactive phosphate incorporation, CDK9/cyclin T1; assay type: biochemical; details: 100 μM ATP, 30° C.; read-out: Kinase inhibition IC50 CDK9/cyclin T1
Description: as §1

[4] = target: GSK3β (Homo sapiens, UniProt P49841); assay: Kinase assay, radioactive phosphate incorporation, GSK3β; assay type: biochemical; details: 100 μM ATP, 30° C.; read-out: Kinase inhibition IC50 GSK3β
Description: as §1

[5] = system: A549; assay: 72-h MTT cytotoxicity assay, A549; assay type: cell-based; details: Homo sapiens, read-out: 72-h MTT IC50 A549, A549 cell line
Description: (§2) The compounds from the examples above were subjected to a standard cellular proliferation assay using human tumour cell lines obtained from the ATCC (American Type Culture Collection, 10801 University Boulevard, Manessas, Va. 20110-2209, USA). Standard 72-h MTT (thiazolyl blue; 3-[4,5-dimethylthiazol-2-yl]-2,5-diphenyltetrazolium bromide) assays were performed. In short: cells were seeded into 96-well plates according to doubling time and incubated overnight at 37° C. Test compounds were made up in DMSO and a 1/3 dilution series prepared in 100 μL cell media, added to cells (in triplicates) and incubated for 72 ho at 37° C. MTT was made up as a stock of 5 mg/mL in cell media and filter-sterilised. Media was removed from cells followed by a wash with 200 μL PBS. MTT solution was then added at 20 μL per well and incubated in the dark at 37° C. for 4 h. MTT solution was removed and cells again washed with 200 μL PBS. MTT dye was solubilised with 200 μL per well of DMSO with agitation.

[6] = system: HT29; assay: 72-h MTT cytotoxicity assay, HT29; assay type: cell-based; details: Homo sapiens, HT-29, read-out: 72-h MTT IC50 HT29, HT29 cell line
Description: as §2

[7] = system: Saos-2; assay: 72-h MTT cytotoxicity assay, Saos-2; assay type: cell-based; details: Homo sapiens, read-out: 72-h MTT IC50 Saos-2, Saos-2 cell line
Description: as §2

[8] = system: transformed human cell lines (A549, HT29, Saos-2); assay: 72-h MTT cytotoxicity assay, average of cell lines; assay type: cell-based; details: read-out: 72-h MTT IC50 Average, average of A549, HT29, Saos-2
Description: as §2

Sequence of GSK3β (P49841 whole entry, species assumed): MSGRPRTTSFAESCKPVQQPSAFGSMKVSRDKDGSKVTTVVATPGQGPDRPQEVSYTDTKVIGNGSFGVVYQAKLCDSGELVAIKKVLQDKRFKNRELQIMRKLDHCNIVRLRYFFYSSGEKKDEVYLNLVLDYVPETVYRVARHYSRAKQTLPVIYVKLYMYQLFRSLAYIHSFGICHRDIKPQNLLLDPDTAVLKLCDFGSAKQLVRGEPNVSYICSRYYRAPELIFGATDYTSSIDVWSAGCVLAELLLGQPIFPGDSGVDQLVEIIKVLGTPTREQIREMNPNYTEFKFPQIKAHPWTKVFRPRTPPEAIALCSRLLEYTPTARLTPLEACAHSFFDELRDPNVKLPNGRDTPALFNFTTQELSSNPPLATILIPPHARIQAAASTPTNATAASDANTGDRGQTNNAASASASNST
Sequence of CDK9/cyclin T1 (P50750 whole entry, species assumed): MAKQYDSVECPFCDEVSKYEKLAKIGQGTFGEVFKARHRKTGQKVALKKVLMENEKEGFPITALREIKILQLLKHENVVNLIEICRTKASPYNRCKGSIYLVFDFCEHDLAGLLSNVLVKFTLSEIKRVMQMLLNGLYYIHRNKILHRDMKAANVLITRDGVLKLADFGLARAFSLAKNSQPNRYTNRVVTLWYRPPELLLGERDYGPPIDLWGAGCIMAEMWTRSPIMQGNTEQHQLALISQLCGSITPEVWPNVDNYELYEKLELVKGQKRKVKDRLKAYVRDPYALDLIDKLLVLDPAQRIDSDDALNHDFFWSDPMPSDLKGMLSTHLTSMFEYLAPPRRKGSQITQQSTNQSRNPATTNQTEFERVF
Sequence of CDK9/cyclin T1 (O60563 whole entry partner, species assumed): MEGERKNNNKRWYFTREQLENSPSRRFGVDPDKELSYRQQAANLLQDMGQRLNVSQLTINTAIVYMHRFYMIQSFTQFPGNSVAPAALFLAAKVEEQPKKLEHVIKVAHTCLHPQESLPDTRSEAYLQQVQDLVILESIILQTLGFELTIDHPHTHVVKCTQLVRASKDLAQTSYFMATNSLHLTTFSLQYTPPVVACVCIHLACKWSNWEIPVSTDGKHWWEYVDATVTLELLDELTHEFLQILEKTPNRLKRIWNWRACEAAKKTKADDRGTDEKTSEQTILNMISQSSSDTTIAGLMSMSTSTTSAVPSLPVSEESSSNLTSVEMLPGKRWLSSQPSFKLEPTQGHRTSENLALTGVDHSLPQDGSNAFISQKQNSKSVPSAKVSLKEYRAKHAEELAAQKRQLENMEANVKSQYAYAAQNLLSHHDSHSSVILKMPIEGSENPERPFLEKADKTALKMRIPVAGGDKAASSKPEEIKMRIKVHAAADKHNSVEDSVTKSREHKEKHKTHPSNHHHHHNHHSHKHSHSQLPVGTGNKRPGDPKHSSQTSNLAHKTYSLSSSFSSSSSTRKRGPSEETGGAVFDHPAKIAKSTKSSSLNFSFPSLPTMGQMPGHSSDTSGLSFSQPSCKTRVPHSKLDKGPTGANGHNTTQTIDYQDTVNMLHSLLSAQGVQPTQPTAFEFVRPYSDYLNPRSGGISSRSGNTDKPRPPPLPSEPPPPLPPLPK
Sequence of CDK7/cyclin H (P50613 whole entry, species assumed): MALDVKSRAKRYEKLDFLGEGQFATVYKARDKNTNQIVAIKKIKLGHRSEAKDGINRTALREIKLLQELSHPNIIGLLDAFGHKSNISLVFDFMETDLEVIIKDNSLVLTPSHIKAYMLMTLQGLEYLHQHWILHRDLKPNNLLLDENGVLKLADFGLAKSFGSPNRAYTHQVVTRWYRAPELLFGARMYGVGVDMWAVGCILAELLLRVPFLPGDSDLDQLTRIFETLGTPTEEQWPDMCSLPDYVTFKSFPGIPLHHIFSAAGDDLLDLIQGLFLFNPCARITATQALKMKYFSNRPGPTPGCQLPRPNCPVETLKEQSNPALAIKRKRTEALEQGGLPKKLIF
Sequence of CDK7/cyclin H (P51946 whole entry partner, species assumed): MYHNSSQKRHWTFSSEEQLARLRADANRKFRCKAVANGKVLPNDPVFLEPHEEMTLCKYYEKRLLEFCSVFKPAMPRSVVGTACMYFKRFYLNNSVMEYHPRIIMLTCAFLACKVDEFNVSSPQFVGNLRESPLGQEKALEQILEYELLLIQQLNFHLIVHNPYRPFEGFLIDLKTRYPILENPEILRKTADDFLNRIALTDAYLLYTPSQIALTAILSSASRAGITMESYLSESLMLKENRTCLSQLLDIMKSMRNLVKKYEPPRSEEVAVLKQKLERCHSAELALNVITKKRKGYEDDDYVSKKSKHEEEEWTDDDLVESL

SMILES | IC50 [1] | IC50 [2] | IC50 [3] | IC50 [4] | IC50 [5] | IC50 [6] | IC50 [7] | IC50 [8]
O=[N+]([O-])c1cccc(Nc2nccc(-c3cccc(O)c3)n2)c1 [Compound 55, 3-[2-(3-Nitro-phenylamino)-pyrimidin-4-yl]-phenol] | 0.04 µM | 0.31 µM | 0.03 µM | 0.003 µM | – | – | – | –
O=[N+]([O-])c1cccc(-c2ccnc(Nc3ccc(O)cc3)n2)c1 [Compound 1, 4-[4-(3-Nitro-phenyl)-pyrimidin-2-ylamino]-phenol] | 1.6 µM | – | – | – | 14.5 µM | 22.9 µM | 44.2 µM | 27.2 ± 15.3 µM
COc1ccc(OC)c(-c2ccnc(Nc3ccc(OC)nc3)n2)c1 [Compound 52, [4-(2,5-Dimethoxy-phenyl)-pyrimidin-2-yl]-(6-methoxy-pyridin-3-yl)-amine] | – | – | 16 µM | – | 20.5 µM | 10.8 µM | 14.9 µM | 15.4 ± 4.9 µM
O=[N+]([O-])c1cccc(-c2ccnc(Nc3cccc(O)c3)n2)c1 [Compound 64, 3-[4-(3-Nitro-phenyl)-pyrimidin-2-ylamino]-phenol] | 0.7 µM | – | – | 0.06 µM | – | – | – | –
OCc1cc(CO)cc(Nc2nccc(-c3cccc(CN4CCCCC4CO)c3)n2)c1 (centres unmarked) [Compound 107, (1-{3-[2-(3,5-Bis-hydroxymethyl-phenylamino)-pyrimidin-4-yl]-benzyl}-piperidin-2-yl)-methanol] | – | 1.4 µM | 0.65 µM | – | – | – | – | –
O=[N+]([O-])c1cccc(Nc2nccc(-c3cc(F)ccc3F)n2)c1 [Compound 123, [4-(2,5-Difluoro-phenyl)-pyrimidin-2-yl]-(3-nitro-phenyl)-amine] | – | – | 0.17 µM | – | – | – | – | –
Oc1cccc(-c2ccnc(Nc3cccc(F)c3)n2)c1 [Compound 57, 3-[2-(3-Fluoro-phenylamino)-pyrimidin-4-yl]-phenol] | 0.21 µM | 1.3 µM | 0.18 µM | 0.054 µM | – | – | – | –
O=[N+]([O-])c1ccc(Nc2nccc(-c3cccc(Cn4cncn4)c3)n2)cc1 [Compound 41, (4-Nitro-phenyl)-[4-(3-[1,2,4]triazol-1-ylmethyl-phenyl)-pyrimidin-2-yl]-amine] | 0.42 µM | 5.5 µM | 0.92 µM | 0.043 µM | – | – | – | –
Oc1cccc(Nc2nccc(-c3ccc(Cl)c(Cl)c3)n2)c1 [Compound 22, 3-[4-(3,4-Dichloro-phenyl)-pyrimidin-2-ylamino]-phenol] | – | – | – | – | 43.5 µM | 85.2 µM | 100 µM | 76.2 ± 29.3 µM
COc1ccc(Nc2nccc(-c3cccc(O)c3)n2)cn1 [Compound 74, 3-[2-(6-Methoxy-pyridin-3-ylamino)-pyrimidin-4-yl]-phenol] | – | 3.8 µM | – | 0.05 µM | – | – | – | –
Cc1ccc(C)c(-c2ccnc(Nc3cccc([N+](=O)[O-])c3)n2)c1 [Compound 61, [4-(2,5-Dimethyl-phenyl)-pyrimidin-2-yl]-(3-nitro-phenyl)-amine] | 1.3 µM | – | – | 0.57 µM | – | – | – | –
COc1cc(Nc2nccc(-c3cccc(NC(C)=O)c3)n2)cc(OC)c1 [Compound 68, N-{3-[2-(3,5-Dimethoxy-phenylamino)-pyrimidin-4-yl]-phenyl}-acetamide] | 2.7 µM | – | – | – | – | – | – | –
CC(=O)N(C)c1cccc(-c2ccnc(Nc3ccc(O)cc3)n2)c1 [Compound 12, N-{3-[2-(4-Hydroxy-phenylamino)-pyrimidin-4-yl]-phenyl}-N-methyl-acetamide] | 0.24 µM | – | – | – | – | – | – | –
CCN(C(C)=O)c1cccc(-c2ccnc(Nc3ccc([N+](=O)[O-])cc3)n2)c1 [Compound 24, N-Ethyl-N-{3-[2-(4-nitro-phenylamino)-pyrimidin-4-yl]-phenyl}-acetamide] | – | – | – | – | 100 µM | 7.8 µM | 80.4 µM | 62.7 ± 48.6 µM
COc1cccc(-c2ccnc(Nc3cccc([N+](=O)[O-])c3)n2)c1 [Compound 87, [4-(3-Methoxy-phenyl)-pyrimidin-2-yl]-(3-nitro-phenyl)-amine] | – | – | 0.003 µM | 0.07 µM | – | – | – | –
CC(=O)N(Cc1cccc(-c2ccnc(Nc3cccc([N+](=O)[O-])c3)n2)c1)C(C)C [Compound 78, N-Isopropyl-N-{3-[2-(3-nitro-phenylamino)-pyrimidin-4-yl]-benzyl}-acetamide] | – | – | – | – | 3.7 µM | 0.96 µM | 5.4 µM | 3.4 ± 2.2 µM
O=[N+]([O-])c1cccc(Nc2nccc(-c3cccc(C(F)(F)F)c3)n2)c1 [Compound 97, (3-Nitro-phenyl)-[4-(3-trifluoromethyl-phenyl)-pyrimidin-2-yl]-amine] | – | – | 0.16 µM | 0.27 µM | – | – | – | –
COCCOc1ccc(Nc2nccc(-c3cccc(N)c3)n2)cc1 [Compound 3, [4-(3-Amino-phenyl)-pyrimidin-2-yl]-[4-(2-methoxy-ethoxy)-phenyl]-amine] | – | – | 0.018 µM | – | 1.8 µM | 3.6 µM | 5.2 µM | 3.5 ± 1.7 µM
CC(=O)Nc1cccc(-c2ccnc(Nc3cccc(O)c3)n2)c1 [Compound 67, N-{3-[2-(3-Hydroxy-phenylamino)-pyrimidin-4-yl]-phenyl}-acetamide] | 0.78 µM | 4.4 µM | 0.16 µM | 0.15 µM | – | – | – | –
OCC1CCCCN1Cc1cccc(-c2ccnc(Nc3ccc(O)cc3)n2)c1 (centres unmarked) [Compound 106, 4-{4-[3-(2-Hydroxymethyl-piperidin-1-ylmethyl)-phenyl]-pyrimidin-2-ylamino}-phenol] | – | 1.7 µM | 0.19 µM | – | – | – | – | –
CC(=O)Nc1cccc(-c2ccnc(Nc3cccc(CO)c3)n2)c1 [Compound 60, N-{3-[2-(3-Hydroxymethyl-phenylamino)-pyrimidin-4-yl]-phenyl}-acetamide] | 1.6 µM | 3.8 µM | 0.26 µM | 0.51 µM | – | – | – | –
CN(Cc1cccc(-c2ccnc(Nc3cccc([N+](=O)[O-])c3)n2)c1)S(=O)(=O)c1cccc([N+](=O)[O-])c1 [Compound 85, N-Methyl-3-nitro-N-{3-[2-(3-nitro-phenylamino)-pyrimidin-4-yl]-benzyl}-benzenesulfonamide] | – | – | 0.4 µM | – | 76.9 µM | 10.4 µM | 44.6 µM | 44 ± 33.3 µM
CC(=O)Nc1cccc(-c2ccnc(Nc3ccccc3)n2)c1 [Compound 66, N-[3-(2-Phenylamino-pyrimidin-4-yl)-phenyl]-acetamide] | 2.8 µM | – | – | 0.63 µM | – | – | – | –
Cc1ccc(C)c(-c2ccnc(Nc3cccc(O)c3)n2)c1 [Compound 62, 3-[4-(2,5-Dimethyl-phenyl)-pyrimidin-2-ylamino]-phenol] | 1.8 µM | – | – | – | – | – | – | –
COc1ccc(-c2ccnc(Nc3cccc(F)c3)n2)cc1 [Compound 119, (3-Fluoro-phenyl)-[4-(4-methoxy-phenyl)-pyrimidin-2-yl]-amine] | – | – | 0.04 µM | 0.14 µM | – | – | – | –
O=[N+]([O-])c1cccc(Nc2nccc(-c3ccc(Cl)c(Cl)c3)n2)c1 [Compound 31, [4-(3,4-Dichloro-phenyl)-pyrimidin-2-yl]-(3-nitro-phenyl)-amine] | – | – | – | 4.5 µM | – | – | – | –
Nc1cccc(-c2ccnc(Nc3cccc([N+](=O)[O-])c3)n2)c1 [Compound 19, [4-(3-Amino-phenyl)-pyrimidin-2-yl]-(3-nitro-phenyl)-amine] | – | 2.5 µM | – | 0.055 µM | – | – | – | –
Oc1cccc(Nc2nccc(-c3cccc(O)c3)n2)c1 [Compound 56] | 0.24 µM | 2.1 µM | 0.07 µM | 0.07 µM | – | – | – | –
COc1ccc(Nc2nccc(-c3ccc(Cl)c(Cl)c3)n2)cn1 [Compound 49, [4-(3,4-Dichloro-phenyl)-pyrimidin-2-yl]-(6-methoxy-pyridin-3-yl)-amine] | – | – | – | 5.2 µM | – | – | – | –
CC(=O)Nc1cccc(-c2ccnc(Nc3cccc([N+](=O)[O-])c3)n2)c1 [Compound 69, N-{3-[2-(3-Nitro-phenylamino)-pyrimidin-4-yl]-phenyl}-acetamide] | 0.31 µM | 0.55 µM | 0.04 µM | 0.14 µM | – | – | – | –
